Literature values as cited in patent US20070117867A1, “Kit comprising three independent compositions and methods for building muscle, increasing strength, increasing muscle size, increasing muscle performance and reducing muscle fatigue” (priority 2005, published 2007).

What was measured:
[1] = system: type II diabetics
[2] = system: muscle; conditions: Creatine supplementation
[3] = system: protein synthesis; conditions: for the purposes of muscle growth and development

O=C(O)CCCCC1CCSS1 (stereo not drawn) [Alpha Lipoic Acid]
body's utilization of blood sugar [1]: significantly increase

CN(CC(=O)O)C(=N)N [Creatine]
concentration of Creatine in the muscle [2]: increase
resynthesis of Phosphocreatine ([2]; within 2 minutes of recovery following exercise): increase

CC(C)C[C@H](N)C(=O)O [Leucine]
protein synthesis [3]: directly activate
